Like-named read-outs stand apart in the source and are kept apart here.
How the values were obtained:
PPARγ-RXRα heterodimer = molecular target: T1, PPARγ-RXRα heterodimer (Homo sapiens, UniProt P37231); assay: PPARγ-RXRα heterodimer ligand activity, luciferase reporter in PPARγ:RXRα:4ERPP/CHO-K1 cells (Test Example 3); assay type: cell-based; details: concentration for 50% of the maximum fold induction of luciferase activity; 48 hours, CHO-K1 cells
T1 construct: expressed in transfected cells; host or cells: CHO-K1
T1 sequence (P37231 1-477 isoform P37231-2): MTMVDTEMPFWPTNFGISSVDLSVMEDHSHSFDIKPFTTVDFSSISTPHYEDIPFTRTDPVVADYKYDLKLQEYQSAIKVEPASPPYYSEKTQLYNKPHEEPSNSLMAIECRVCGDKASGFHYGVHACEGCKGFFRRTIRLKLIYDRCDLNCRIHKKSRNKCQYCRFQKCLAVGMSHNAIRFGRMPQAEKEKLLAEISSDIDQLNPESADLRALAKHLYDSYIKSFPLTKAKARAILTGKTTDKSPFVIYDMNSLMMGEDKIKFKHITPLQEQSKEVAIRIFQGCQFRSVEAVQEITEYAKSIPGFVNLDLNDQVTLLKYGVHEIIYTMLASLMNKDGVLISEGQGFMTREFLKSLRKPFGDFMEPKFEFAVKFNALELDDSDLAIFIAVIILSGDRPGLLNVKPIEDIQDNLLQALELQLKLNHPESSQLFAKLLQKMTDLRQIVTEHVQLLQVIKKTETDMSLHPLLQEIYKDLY
T1 sequence (P19793 1-462 partner): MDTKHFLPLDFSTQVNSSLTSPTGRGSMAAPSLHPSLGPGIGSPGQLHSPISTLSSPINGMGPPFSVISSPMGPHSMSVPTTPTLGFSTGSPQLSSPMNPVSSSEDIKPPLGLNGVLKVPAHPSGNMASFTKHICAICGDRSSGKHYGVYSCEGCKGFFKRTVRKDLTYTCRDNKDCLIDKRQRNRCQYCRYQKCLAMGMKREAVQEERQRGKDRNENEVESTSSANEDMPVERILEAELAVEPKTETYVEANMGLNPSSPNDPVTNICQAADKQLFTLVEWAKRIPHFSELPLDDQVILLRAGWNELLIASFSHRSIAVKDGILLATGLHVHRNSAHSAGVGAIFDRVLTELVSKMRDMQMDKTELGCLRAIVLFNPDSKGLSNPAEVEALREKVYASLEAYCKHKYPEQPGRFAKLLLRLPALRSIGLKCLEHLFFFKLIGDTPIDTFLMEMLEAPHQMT
Description: A PPARγ:RXRα:4ERPP/CHO-K1 cells obtained in Reference Example 5 described later were cultured in HAM F12 medium (produced by NISSUI SEIYAKU) containing 10% Fetal bovine serum (produced by Life Technologies, Inc., USA) and then inoculated to a 96-well white plate (produced by Corning Costar Corporation, USA) at the density of 2×10^4 cells/well, and cultured in a CO2 gas incubator at 37° C. overnight.
After washing the 96 well white plate with PBS (Phosphate-buffered saline), 90 μl of HAM F12 medium containing 0.1% fatty acid-free bovine serum albumin (BSA) and 10 μl of test compound were added, which was cultured in a CO2 gas incubator at 37° C. for 48 hours. After removing the medium, 40 μl of PIKKAGENE 7.5 (produced by Wako Pure Chemical Industries, Ltd.) was added. After stirring, the luciferase activity was determined using Lumistar (produced by BMG Labtechnologies GmbH, Germany).
A fold induction was calculated based on the luciferase activity of each test compound by taking the luciferase activity in the test compound non administration group as 1. The values of the test compound, concentration and the fold induction were analyzed using PRISM 2.01 (produced by GraphPad Software Inc. USA) to calculate the EC50 values, the effective concentration of a test compound for 50% of the maximum fold induction.
After a CHO-K1 cell cultured in a 750 ml tissue culture flask (produced by Corning-Costar Corporation, USA) containing HAM F12 medium (produced by NISSUI SEIYAKU) supplemented with 10% Fetal Bovine Serum (produced by Life Technologies, Inc., USA) was scraped by treating with 0.5 g/L trypsin-0.2 g/L EDTA (ethylenediaminetetraacetic acid) (produced by Life Technologies, Inc., USA), the cell was washed with PBS (phosphate buffered saline) (produced by Life Technologies, Inc., USA), centrifuged (1000 rpm, 5 minutes), and then suspended in PBS. Subsequently, a DNA was introduced into the cell under the condition shown below using GENE PULSER (produced by Bio-Rad Laboratories, USA).
Namely, to a cuvette having a 0.4 cm gap, added were 8×10^6 cells and 10 μg of plasmid pVgRXR2-hPPARγ obtained in Reference Example 3 and 10 μg of reporter plasmid pGL3-4ERPP-TK neo obtained in Reference Example 4, which was subjected to electroporation at the voltage of 0.25 kV under the capacitance of 960 μF. Subsequently, the cell was transferred into a HAM F12 medium containing 10% Fetal Bovine. Serum and cultured for 24 hours. Then the cell was scraped again and centrifuged, and then suspended in HAM F12 medium containing 10% Fetal Bovine Serum supplemented with 500 μg/ml of GENETICIN (produced by Life Technologies, Inc., USA) and 250 μg/ml of ZEOCIN (produced by Invitrogen, USA). The suspension was diluted to the density of 10^4 cells/ml, and inoculated to a 96-well plate (produced by Corning Costar Corporation, USA), which was cultured in a CO2 gas incubator at 37° C., whereby obtaining a GENETICIN- and ZEOCIN-resistant transformant.
Subsequently, after the transformant cell line thus obtained was cultured in a 24-well plate (produced by Corning Costar Corporation, USA), selected was a cell line, PPARγ:RXRα:4ERPP/CHO-K1 cell, in which the luciferase was expressed and induced by addition of 10 μM pioglitazone hydrochloride.

KKAY mice = assay: Hypoglycemic and hypolipidemic actions in mice (Test Example 1); assay type: in vivo; details: Mus musculus, po, 96 h, 0.005% in powdery diet, four days
From the text: Test compounds were mixed in a powdery diet (CE-2, Japan Clea) at the concentration of 0.01% (compounds of Examples 7, 26, 29, 32) or 0.005% (compounds of Examples 1, 11, 15, 18, 24, 36, 37, 41, 48, 50, 51, 52, 58, 62, 79, 83, 88, 90, 91, 92, 93, 97, 107, 110, 115, 119, 122, 125, 129 and 130), and freely given to KKAY mice (11 to 12 weeks old, 5 mice in a group), a model of type 2 diabetes mellitus, for four days. During this period, water was given freely. Blood was sampled from orbital venous plexus, and glucose and triglyceride levels in plasma separated from blood were determined enzymatically using L type Wako Glu2 (Wako Pure Chemical Industries, Ltd.) or L type Wako TG.H (Wako Pure Chemical Industries, Ltd.), respectively.
In the Table, “hypoglycemic action (%)” means a percent reduction (%) of the glucose level in the test compound administration group when that of the test compound non-administration group is taken as 100%. In addition, the “hypolipidemic action (%)” means a percent reduction (%) of the triglyceride level in the test compound administration group when that of the test compound non-administration group is taken as 100%.

[1] = percent reduction of plasma glucose level vs non-administration group, read-out: hypoglycemic action (%)
[2] = percent reduction of plasma triglyceride level vs non-administration group, read-out: hypolipidemic action (%)

EC50 (PPARγ-RXRα heterodimer) [nM]	melting point [°C]	Compound	inhibition in vivo at 0.005 % (KKAY mice; [1]) [%]	inhibition in vivo at 0.005 % (KKAY mice; [2]) [%]
110	116 to 117	CCCc1ccc(OCc2ccc(OCc3nc(-c4ccccc4)oc3C)cc2)c(CC(=O)O)c1 [Example 83, 2-[2-[4-[(5-methyl-2-phenyl-4-oxazolyl)methoxy]benzyloxy]-5-propylphenyl]acetic acid]	48	43
52	136 to 137	Cc1oc(-c2ccco2)nc1COc1cc(COc2cccc(CC(=O)O)c2)ccn1 [Example 90]	30	40
130	126 to 127	Cc1oc(-c2ccccc2)nc1COc1ccc(OCc2ncccc2CC(=O)O)cc1 [Example 125, 2-[2-[[4-[(5-methyl-2-phenyl-4-oxazolyl)methoxy]phenoxy]methyl]-3-pyridyl]acetic acid]	41	40
70	109 to 110	Cc1sc(-c2ccccc2)nc1COc1cc(COc2ncccc2CC(=O)O)on1 [Example 115, 2-[2-[[3-[(5-methyl-2-phenyl-4-thiazolyl)methoxy]-5-isoxazolyl]methoxy]-3-pyridyl]acetic acid]	52	87
